# According to patent US20230013669A1, “Antibacterial Treatment Using a Cannabinoid and an Active Agent” (priority 2019, published 2023):
# Several values for one entry are separate records, joined by “and”; a condition that tells them apart may be missing. Equal entries are not always repeated.
# Tested on: Escherichia coli ATCC 25922 (GN_001)
# Assay: Synergy of cannabidiol with cell-wall disrupting agent (CBD MIC in combination, FICI)
# Format: cell-based
# Procedure: The compounds were stored short term at 4° C.
# Analysis was performed using Microsoft Excel.
# [1] = CBD with Colistin, Escherichia coli ATCC 25922
# [2] = CBD with MCC_6442, Escherichia coli ATCC 25922
# [3] = CBD with Ticarcillin, Escherichia coli ATCC 25922
compound,measurement,setting,value
"C=C(C)C1CCC(C)=CC1c1c(O)cc(CCCCC)cc1O (stereo not shown) [Cannabidiol, 2-[3-methyl-6-(1-methylethenyl)-2-cyclohexen-1-yl]-5-pentyl-1,3-benzenediol]",CBD MIC with Aztreonam,Aztreonam at 0.062 μg/mL,1 ng/mL
same,CBD MIC with Aztreonam,Aztreonam at 0.25 μg/mL,1 ng/mL
same,CBD MIC with Aztreonam,Aztreonam at 0.5 μg/mL,1 ng/mL
same,CBD MIC with Aztreonam,Aztreonam at […],1 ng/mL
same,FICI,"CBD with Aztreonam at 0.015 μg/mL, CBD MIC taken as 256 μg/mL",1.12
same,FICI,"CBD with Aztreonam at 0.031 μg/mL, CBD MIC taken as 256 μg/mL",1.248
same,FICI,"CBD with Aztreonam at 0.062 μg/mL, CBD MIC taken as 256 μg/mL",0.496
same,FICI,"CBD with Aztreonam at 0.25 μg/mL, CBD MIC taken as 256 μg/mL",2
same,FICI,"CBD with Aztreonam at 0.5 μg/mL, CBD MIC taken as 256 μg/mL",4
same,FICI range,"CBD with Aztreonam, Synergy table (Table 76)",0.48
same,FICI range,"CBD with Aztreonam, all tested concentrations (Table 74)",0.5-4
same,FICI,"CBD with Cefepime at 0.015 μg/mL, CBD MIC taken as 256 μg/mL",1.484 and 1.242
same,FICI,"CBD with Cefepime at 0.062 μg/mL, CBD MIC taken as 256 μg/mL",2
same,FICI,"CBD with Cefepime at 0.25 μg/mL, CBD MIC taken as 256 μg/mL",8.065
same,FICI,"CBD with Cefepime at 0.25 μg/mL, CBD MIC taken as 256 μg/mL, listed as cannabidiol",4.032
same,FICI,"CBD with Cefepime at 0.5 μg/mL, CBD MIC taken as 256 μg/mL",16.13 and 8.065
same,FICI range,"CBD with Cefepime, all tested concentrations (Table 79), listed as CBD",1-16.13 and 0.5-8.06
same,FICI,"CBD with Cefotetan at 0.015 μg/mL, CBD MIC taken as 256 μg/mL",1.06
same,FICI,"CBD with Cefotetan at 0.031 μg/mL, CBD MIC taken as 256 μg/mL",1.124
same,FICI,"CBD with Cefotetan at 0.062 μg/mL, CBD MIC taken as 256 μg/mL",1.248
same,FICI,"CBD with Cefotetan at 0.5 μg/mL, CBD MIC taken as 256 μg/mL",2
same,FICI range (MIC table),"CBD with Cefotetan, Escherichia coli ATCC 25922",0.5-2
same,FICI range,"CBD with Cefotetan, Synergy table (Table 71)",0.5
same,FICI,"CBD with Ceftazidime at 0.015 μg/mL, Escherichia coli ATCC 25922",1.242
same,FICI,"CBD with Ceftazidime at 0.031 μg/mL, Escherichia coli ATCC 25922",1.5
same,FICI,"CBD with Ceftazidime at 0.062 μg/mL, Escherichia coli ATCC 25922",2
same,FICI,"CBD with Ceftazidime at 0.25 μg/mL, Escherichia coli ATCC 25922",4.032
same,FICI,"CBD with Ceftazidime at 0.5 μg/mL, Escherichia coli ATCC 25922",8.065
same,FICI range (MIC table),"CBD with Ceftazidime, Escherichia coli ATCC 25922",1.24-8.06
same,FICI,"CBD with Cefuroxime at 0.25 μg/mL, Escherichia coli ATCC 25922",1.125
same,FICI,"CBD with Cefuroxime at 1 μg/mL, Escherichia coli ATCC 25922",1.5
same,FICI,"CBD with Cefuroxime at 2 μg/mL, Escherichia coli ATCC 25922",1.001
same,FICI,"CBD with Cefuroxime at 4 μg/mL, Escherichia coli ATCC 25922",2
same,FICI,"CBD with Cefuroxime at 8 μg/mL, Escherichia coli ATCC 25922",4
same,FICI,"CBD with Colistin at 0.015 μg/mL, Escherichia coli ATCC 25922",1.03
same,FICI,"CBD with Colistin at 0.03 μg/mL, Escherichia coli ATCC 25922",1.06
same,FICI,"CBD with Colistin at 0.06 μg/mL, Escherichia coli ATCC 25922",0.1512
same,FICI,"CBD with Colistin at 0.25 μg/mL, Escherichia coli ATCC 25922",0.5039
same,FICI,"CBD with Colistin at 0.5 μg/mL, Escherichia coli ATCC 25922",1
same,FICI range (MIC table),[1],0.15-1.06
same,FICI range (Synergy table),[1],0.15-0.5
same,FICI range (MIC table),[2],0.5-1.25
same,FICI range (Synergy table),[2],0.5
same,FICI,"CBD with MCC_6442 at 0.25 μg/mL, Escherichia coli ATCC 25922",1.0625
same,FICI,"CBD with MCC_6442 at 0.5 μg/mL, Escherichia coli ATCC 25922",1.125
same,FICI,"CBD with MCC_6442 at 2 μg/mL, Escherichia coli ATCC 25922, listed as CBD",0.5
same,FICI range,"CBD with Octapeptin C4, Synergy table (Table 85), listed as CBD",0.5 and 0.31-0.5
same,FICI range,"CBD with Octapeptin C4, all tested concentrations (Table 83), listed as CBD",0.5-1.25 and 0.31-1.13
same,FICI,"CBD with Octapeptin C4 at 0.5 μg/mL, CBD MIC taken as 256 μg/mL",1.0625
same,FICI,"CBD with Octapeptin C4 at 1 μg/mL, CBD MIC taken as 256 μg/mL",1.125
same,FICI,"CBD with Octapeptin C4 at 2 μg/mL, CBD MIC taken as 256 μg/mL",0.3125
same,FICI,"CBD with Octapeptin C4 at 4 μg/mL, CBD MIC taken as 256 μg/mL",0.5002 and 0.5005
same,FICI,"CBD with Octapeptin C4 at […], CBD MIC taken as 256 μg/mL",1.016
same,FICI range,"CBD with Spero SPR206, 1st of 3 experiments",0.5-16
same,FICI range,"CBD with Spero SPR206, 2nd of 3 experiments, listed as CBD",0.13-1.06 and 0.07-1.03
same,FICI range,"CBD with Spero SPR206, 3rd of 3 experiments",1.01-8
same,FICI,"CBD with Spero SPR206 at 0.007 μg/mL, 2nd of 3 experiments, CBD MIC taken as 256 μg/mL",1.014
same,FICI,"CBD with Spero SPR206 at 0.015 μg/mL, 2nd of 3 experiments, CBD MIC taken as 256 μg/mL",1.03
same,FICI,"CBD with Spero SPR206 at 0.062 μg/mL, 2nd of 3 experiments, CBD MIC taken as 256 μg/mL",0.1279
same,FICI,"CBD with Spero SPR206 at 0.25 μg/mL, 2nd of 3 experiments, CBD MIC taken as 256 μg/mL",0.5039
same,FICI,"CBD with Spero SPR206 at 0.25 μg/mL, 3rd of 3 experiments, CBD MIC taken as 256 μg/mL",1.5
same,FICI,"CBD with Spero SPR206 at 0.5 μg/mL, 1st of 3 experiments, CBD MIC taken as 256 μg/mL",2
same,FICI,"CBD with Spero SPR206 at 0.5 μg/mL, 3rd of 3 experiments, CBD MIC taken as 256 μg/mL",1.008
same,FICI,"CBD with Spero SPR206 at 1 μg/mL, 1st of 3 experiments, CBD MIC taken as 256 μg/mL",4
same,FICI,"CBD with Spero SPR206 at 1 μg/mL, 3rd of 3 experiments, CBD MIC taken as 256 μg/mL",2.002 and 2.001
same,FICI,"CBD with Spero SPR206 at 2 μg/mL, 1st of 3 experiments, CBD MIC taken as 256 μg/mL",8
same,FICI,"CBD with Spero SPR206 at 2 μg/mL, 3rd of 3 experiments, CBD MIC taken as 256 μg/mL",4.001
same,FICI,"CBD with Spero SPR206 at 4 μg/mL, 1st of 3 experiments, CBD MIC taken as 256 μg/mL",16
same,FICI,"CBD with Spero SPR206 at 4 μg/mL, 3rd of 3 experiments, CBD MIC taken as 256 μg/mL",8
same,FICI,"CBD with Ticarcillin at 0.5 μg/mL, Escherichia coli ATCC 25922",1.0625
same,FICI,"CBD with Ticarcillin at 1 μg/mL, Escherichia coli ATCC 25922",1.125
same,FICI,"CBD with Ticarcillin at 4 μg/mL, Escherichia coli ATCC 25922",0.5005
same,FICI range (MIC table),[3],0.5-1.25
same,FICI range (Synergy table),[3],0.5
same,CBD MIC with Cefepime,Cefepime at 0.031 μg/mL,1 ng/mL
same,CBD MIC with Cefepime,Cefepime at 0.062 μg/mL,1 ng/mL
same,CBD MIC with Cefepime,Cefepime at 0.25 μg/mL,1 ng/mL
same,CBD MIC with Cefepime,Cefepime at 0.5 μg/mL,1 ng/mL
same,CBD MIC with Cefepime,Cefepime at […],1 ng/mL
same,CBD MIC with Cefotetan,Cefotetan at 0.015 μg/mL,>32000 ng/mL
same,CBD MIC with Cefotetan,"Cefotetan at 0.015 μg/mL, Escherichia coli ATCC 25922",>256000 ng/mL
same,CBD MIC with Cefotetan,Cefotetan at 0.031 μg/mL,>32000 ng/mL
same,CBD MIC with Cefotetan,"Cefotetan at 0.031 μg/mL, Escherichia coli ATCC 25922",>256000 ng/mL
same,CBD MIC with Cefotetan,Cefotetan at 0.062 μg/mL,>32000 ng/mL
same,CBD MIC with Cefotetan,"Cefotetan at 0.062 μg/mL, Escherichia coli ATCC 25922",>256000 ng/mL
same,CBD MIC with Cefotetan,Cefotetan at 0.25 μg/mL,1 ng/mL
same,CBD MIC with Cefotetan,"Cefotetan at 0.25 μg/mL, Escherichia coli ATCC 25922",1 ng/mL
same,CBD MIC with Cefotetan,Cefotetan at 0.5 μg/mL,1 ng/mL
same,CBD MIC with Cefotetan,"Cefotetan at 0.5 μg/mL, Escherichia coli ATCC 25922",1 ng/mL
same,CBD MIC with Cefotetan,Cefotetan at […],1 ng/mL
same,CBD MIC with Cefotetan,"Cefotetan at […], Escherichia coli ATCC 25922",1 ng/mL
same,CBD MIC with Ceftazidime,"Ceftazidime at 0.25 μg/mL, Escherichia coli ATCC 25922",1 ng/mL
same,CBD MIC with Ceftazidime,"Ceftazidime at 0.5 μg/mL, Escherichia coli ATCC 25922",1 ng/mL
same,CBD MIC with Cefuroxime,"Cefuroxime at 2 μg/mL, Escherichia coli ATCC 25922",250 ng/mL
